Columns and labels:
[1] = target: T1, VHL E3-PROTAC-p65 ternary complex (Homo sapiens, UniProt P40337+Q04206); test: GST pulldown assay of VHL E3 ligase complex and p65 with TF-PROTAC; format: binding; settings: GST-VHL complex from E. coli, HEK293T lysate with Flag-p65, in vitro
T1 construct: made in house; host or cells: E. coli BL21(DE3) for the GST-VHL/Elongin B/C complex; HEK293T lysate for Flag-p65
Source text: Furthermore, dNF-κB is capable of recruiting VHL E3 ubiquitin ligase to POI, NF-κB. […] However, dNF-κB obtained in current stage could not efficiently promote the degradation of p65 in cells, which prompted further optimization of the length of linker between the VHL ligand and DNA oligomer moieties for achieving efficient destruction of NF-κB in cells.
pGEX-GST-VHL/ElonginB construct was kindly gift from Dr. William Kaelin, Jr. at Dana-Farber Cancer Institute, Harvard Medical School. pGEX-GST-Elongin C plasmid was generated by subcloning Elongin C CDS into the BamHI and Xhol sites of pGEX-4T1-GST vector. The GST-VHL/ElonginB/C complex was purified as described 43. Briefly, BL21(DE3) E. coli was cotransfected with pGEX-GST-VHL/ElonginB and pGEX-GSTElonginC plasmid. Protein expression was induced by 100 μM isopropyl beta-D-thiogalactopyranoside (IPTG, Fisher Scientific) at 18° C.overnight. Then, the bacterial culture was centrifuged and sonicated in PBS buffer with protease inhibitor cocktail. Protein lysates were further purified with glutathione-Sepharose beads (GE17-0756-05) and washed with PBS for 5 times.
Glutathione-Sepharose beads loaded with GST-VHL E3 ligase complex were incubated at 4° C. with cell lysate derived from HEK293T cells that ectopic transfected with individual transfection factor. After incubation for 3 hours, TF-PROTACs were added into the mixture for another 2 hours, followed by wash with NETN buffer for 3 times. The pulldown products were further separated by 10% SDS-PAGE and blotted for indicated proteins.

[2] = target: T2, p65 (Homo sapiens, UniProt Q04206); test: In vivo ubiquitination assay of p65 (Ni-NTA pulldown); format: cell-based; settings: HEK293T cells, Flag-p65 24 hours, then dNF-κB 12 hours
Method: Denatured in vivo ubiquitination assays were performed as previously described 41. Briefly, HEK293T cells were firstly transfected with Flag-p65 or HA-E2F1 for 24 hours, followed by additional transfection of individual TF-PROTAC for another 12 hours. Before been harvested, HEK293T cells were treated with 30 μM of MG132 for 4 hours. After having been harvested in denatured buffer A (6 M guanidine-HCI, pH 8.0, 0.1 M Na2HPO4/NaH2PO4, and 10 mM imidazole) and sonication for 10 seconds, cell lysis was incubation with Ni-nitrilotriacetic acid (NTA) matrices under rotation for 3 hours at room temperature. The pulldown products were washed sequentially twice in buffer A, twice in buffer A/TI mixture (buffer A, buffer TI=1:3, v/v), and once in buffer TI (25 mM tris-HCl, pH 6.8, and 20 mM imidazole). The ubiquitinated proteins were finally separated by 7% SDS-PAGE and blotted with individual antibody.
Target sequence in this assay (Q04206 whole entry): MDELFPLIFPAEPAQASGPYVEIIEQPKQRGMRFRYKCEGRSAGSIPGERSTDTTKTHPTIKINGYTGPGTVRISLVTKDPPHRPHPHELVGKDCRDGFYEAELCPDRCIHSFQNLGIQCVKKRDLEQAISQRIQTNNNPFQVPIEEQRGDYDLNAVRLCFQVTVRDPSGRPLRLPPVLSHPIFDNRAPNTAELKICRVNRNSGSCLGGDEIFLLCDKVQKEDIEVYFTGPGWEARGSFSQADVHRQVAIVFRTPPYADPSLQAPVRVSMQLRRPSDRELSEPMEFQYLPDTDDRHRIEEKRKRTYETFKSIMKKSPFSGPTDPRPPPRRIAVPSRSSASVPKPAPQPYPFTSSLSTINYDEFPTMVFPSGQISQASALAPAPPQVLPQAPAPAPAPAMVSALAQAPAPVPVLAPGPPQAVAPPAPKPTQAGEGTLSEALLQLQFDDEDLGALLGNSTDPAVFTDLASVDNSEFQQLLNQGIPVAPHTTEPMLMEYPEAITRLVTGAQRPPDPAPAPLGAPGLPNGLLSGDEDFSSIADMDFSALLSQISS

[3] = tested on: HeLa cells; test: Cell growth curve assay (cell number); format: cell-based, human; settings: 10 ug/mL
Method: For cell growth curve assay, HeLa cells (10, 000/well) in 12-well plate were transfected with individual TF-PROTAC, then the cells were trypsined and the cell number were counted at indicated time. For the clonal formation assay, HeLa cells were transfected with individual TF-PROTAC for 12 hours, followed by further plated into 6-well plate (1,000/well). Three weeks later, the cells were fixed in fixation buffer (acetic acid: methanol=1:7) and stained with 0.4% crystal violet in 20% ethanol. Then clonal number were quantified by Image J software. As various changes can be made in the above-described subject matter without departing from the scope and spirit of the present disclsoure, it is intended that all subject matter contained in the above description, or defined in the appended claims, be interpreted as descriptive and illustrative. Many modifications and variations of the present disclosure are possible in light of the above teachings. Accordingly, the present description is intended to embrace all such alternatives, modifications and variances which fall within the scope of the appended claims.

[4] = target: T2, p65; test: Global proteomic study by quantitative mass spectrometry in HeLa cells; format: cell-based; set-up: endogenous in cells; host or cells: HeLa; settings: out of more than 4,100 detected proteins
Method: HeLa cells were treated with either vehicle or dNF-κB #16 for 12 hours, washed twice with cold PBS, and then harvested in PBS to pellet down cells. Cell pellets were resuspended in lysis buffer ([…], 50 mM Tris-HCl, pH 8.0), reduced with dithiothreitol (5 mM final) for 30 min at room temperature, and alkylated with iodoacetamide (15 mM final) for 45 min in the dark at room temperature. Samples were diluted 4-fold with digestion buffer (25 mM Tris-HCl, pH 8.0, 1 mM CaCl2) and digested with trypsin at 1:100 ratio (trypsin/protein, w/w) overnight at room temperature. Peptides were desalted on home-made C18 stagetips. There were two biological samples at each condition.
Dried peptides were dissolved in 0.1% formic acid, 2% acetonitrile. Peptide concentration was measured with Pierce™ Quantitative Colorimetric Peptide Assay (Thermofisher). 0.5 ug of peptides were analyzed on a Q-Exactive HF-X coupled with an Easy nanoLC 1200 (Thermo Fisher Scientific, San Jose, CA). Peptides were loaded on to a nanoEase MZ HSS T3 Column (100 Å, 1.8 μm, 75 μm×150 mm, Waters). […]
Mass spectra were processed, and peptide identification was performed using the MaxQuant software version 1.6.10.43 (Max Planck Institute, Germany). […] Quantitation using iBAQ intensity (Intensity-Based Absolute Quantification) was performed with a p-value of 0.01 to report statistically significant abundance fold-changes.
Target sequence in this assay (Q04206 whole entry): as above
Target sequence in this assay (P19838 1-433 limits assumed, further chain): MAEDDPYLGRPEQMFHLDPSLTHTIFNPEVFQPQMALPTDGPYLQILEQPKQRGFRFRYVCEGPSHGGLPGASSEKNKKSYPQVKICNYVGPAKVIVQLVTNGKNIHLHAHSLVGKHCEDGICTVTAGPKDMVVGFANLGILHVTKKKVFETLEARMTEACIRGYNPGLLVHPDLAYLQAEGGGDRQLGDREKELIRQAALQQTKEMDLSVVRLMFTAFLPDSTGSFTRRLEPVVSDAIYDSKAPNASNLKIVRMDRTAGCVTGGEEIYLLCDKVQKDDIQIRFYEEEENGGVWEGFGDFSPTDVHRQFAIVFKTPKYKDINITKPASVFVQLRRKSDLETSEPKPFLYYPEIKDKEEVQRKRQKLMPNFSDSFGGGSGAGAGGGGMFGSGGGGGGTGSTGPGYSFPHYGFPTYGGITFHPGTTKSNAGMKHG

T1 sequence (P40337 whole entry): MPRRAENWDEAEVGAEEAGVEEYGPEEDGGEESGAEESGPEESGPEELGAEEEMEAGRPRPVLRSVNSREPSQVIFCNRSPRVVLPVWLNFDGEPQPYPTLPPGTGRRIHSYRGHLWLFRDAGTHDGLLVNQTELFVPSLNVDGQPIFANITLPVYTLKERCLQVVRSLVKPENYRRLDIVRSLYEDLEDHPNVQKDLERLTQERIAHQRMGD
T1 sequence (Q15370 whole entry partner): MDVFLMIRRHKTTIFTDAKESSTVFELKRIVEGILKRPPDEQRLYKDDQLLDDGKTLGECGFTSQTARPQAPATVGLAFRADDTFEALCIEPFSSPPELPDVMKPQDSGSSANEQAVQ
T1 sequence (Q15369 whole entry partner): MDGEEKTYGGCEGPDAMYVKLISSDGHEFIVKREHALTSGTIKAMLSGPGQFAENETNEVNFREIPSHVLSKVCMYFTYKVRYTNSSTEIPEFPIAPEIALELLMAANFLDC
T1 sequence (Q04206 whole entry): as the sequence (Q04206 whole entry) above

## dNF-κB #16 (TGGGGACTTTCCAGTTTCTGGAAAGTCCCCA; decoy; VHL ligand conjugate via PEG3 linker, further chemistry not given here)
[1]
  VHL E3 ligase-p65 binding (ternary complex) induced by PROTAC: recruited the binding between the VHL E3 ubiquitin ligase and p65 in vitro
[2]
  ubiquitination of p65 in cells: lead to the ubiquitination of p65 in cells
[3]
  proliferation of HeLa cells (cell number): repressed the proliferation of HeLa cells
[4]
  number of proteins with reduced expression level: 31
